Laboratory results published in patent US10105357B2, “Indication of antibiotic drugs for preparation of cancer inhibition pharmaceutical composition” (LAUNX BIOMEDICAL CO., LTD., priority 2014, dated 2018).
Where two headings read alike, the source gives them in different places.

Assays:
[1] = test system: A549 (Lung Adenocarcinoma); assay: Cell viability analysis, lung cancer A549; format: cell-based, human; conditions: Homo sapiens, A549, 72 h
[2] = test system: HeLa (Cervix Adenocarcinoma); assay: Cell viability analysis, cervical cancer HeLa; format: cell-based, human; conditions: Homo sapiens, HeLa, 72 h, HeLa
[3] = test system: PC3 (p53−) (Prostate Adenocarcinoma); assay: Cell viability analysis, prostate cancer PC3; format: cell-based, human; conditions: Homo sapiens, 72 h
AsPC-1 = assay: Cell viability analysis, pancreatic cancer AsPC-1; format: cell-based, human; conditions: Homo sapiens, ASPC1, 72 h; AsPC-1; repeated experiment; read-out: The results of antibiotic drug inhibiting cancer cell lines (cell viability analysis), AsPC-1
BxPC-3 = assay: Cell viability analysis, pancreatic cancer BxPC-3; format: cell-based, human; conditions: Homo sapiens, 72 h; BxPC-3; repeated experiment; read-out: The results of antibiotic drug inhibiting cancer cell lines (cell viability analysis), BxPC-3
[4] = test system: A375 (Amelanotic Melanoma); assay: Cell viability analysis, skin cancer A375; format: cell-based, human; conditions: Homo sapiens, A-375, 72 h
[5] = test system: MDA-MB-231 (Mammary Gland, Adenocarcinoma); assay: Cell viability analysis, breast cancer MDA-MB-231; format: cell-based, human; conditions: Homo sapiens, MDA-MB-231, 72 h; MDA-MB231; repeated experiment; read-out: The results of antibiotic drug inhibiting cancer cell lines (cell viability analysis), MDA-MB231
[6] = test system: LoVo (Colorectal Adenocarcinoma); assay: Cell viability analysis, colon cancer LoVo; format: cell-based, human; conditions: Homo sapiens, LoVo, 72 h
[7] = test system: AGS (Gastric Adenocarcinoma); assay: Cell viability analysis, gastric cancer AGS; format: cell-based, human; conditions: Homo sapiens, 72 h
[8] = test system: HL-60 (Acute Promyelocytic Leukemia); assay: Cell viability analysis, leukemia HL-60; format: cell-based, human; conditions: Homo sapiens, HL-60, 72 h, drug 10 μM, 72 hours, WST-1, OD450 nm; read-out: cell viability (survival rate), HL-60
[9] = test system: HepG2 (Hepatocellular Carcinoma); assay: Cell viability analysis, hepatic cancer HepG2; format: cell-based, human; conditions: Homo sapiens, HepG2, 72 h
T24 = assay: Cell viability analysis, bladder cancer T24; format: cell-based, human; conditions: Homo sapiens, T-24, 72 h; T24; repeated experiment; read-out: The results of antibiotic drug inhibiting cancer cell lines (cell viability analysis), T24
[10] = test system: MKN-45 (Gastric Adenocarcinoma); assay: Cell viability analysis, gastric cancer MKN-45; format: cell-based, human; conditions: Homo sapiens, MKN-45, 72 h
[11] = test system: SAS (Tongue squamous cell carcinoma); assay: Cell viability analysis, tongue cancer SAS; format: cell-based, human; conditions: Homo sapiens, 72 h; SAS; repeated experiment; read-out: The results of antibiotic drug inhibiting cancer cell lines (cell viability analysis), SAS
NIH: OVCAR-3 = assay: Cell viability analysis, ovarian cancer NIH: OVCAR-3; format: cell-based, human; conditions: Homo sapiens, 72 h; NIH-OVCAR-3; repeated experiment; read-out: The results of antibiotic drug inhibiting cancer cell lines (cell viability analysis), NIH-OVCAR-3
U-2OS = assay: Cell viability analysis, osteosarcoma U-2OS; format: cell-based, human; conditions: Homo sapiens, 72 h; U2OS; repeated experiment; read-out: The results of antibiotic drug inhibiting cancer cell lines (cell viability analysis), U2OS
TOV-21G = assay: Cell viability analysis, ovarian cancer TOV-21G; format: cell-based, human; conditions: Homo sapiens, TOV21G, 72 h; TOV-21G; repeated experiment; read-out: The results of antibiotic drug inhibiting cancer cell lines (cell viability analysis), TOV-21G
[12] = test system: 786-O (Renal adenocarcinoma); assay: Cell viability analysis, renal cancer 786-O; format: cell-based, human; conditions: Homo sapiens, 786-0, 72 h; 786-O; repeated experiment; read-out: The results of antibiotic drug inhibiting cancer cell lines (cell viability analysis), 786-O
[13] = test system: HI650 (Lung Adenocarcinoma); assay: Cell viability analysis, lung cancer HI650; format: cell-based, human; conditions: Homo sapiens, NCI-H1650, 72 h
[14] = test system: HCT116 (p53+) (Colorectal Carcinoma)
[15] = test system: MCF7 (Mammary Gland, Adenocarcinoma); assay: Cell viability analysis, breast cancer MCF7; format: cell-based, human; conditions: Homo sapiens, MCF7, 72 h
[16] = test system: Hep3B (hepatocellular carcinoma); assay: Cell viability analysis, hepatic cancer Hep3B; format: cell-based, human; conditions: Homo sapiens, 72 h; Hep3B; repeated experiment; read-out: The results of antibiotic drug inhibiting cancer cell lines (cell viability analysis), Hep3B
cancer cell lines = assay: Cell viability analysis (WST-1) on cancer cell lines; format: cell-based, human; conditions: drug 10 μM, 72 hours, WST-1; Table 3
[17] = test system: BCC (basal cell carcinoma); assay: Cell viability analysis, skin cancer BCC; format: cell-based, human; conditions: Homo sapiens, 72 h; BCC; repeated experiment; read-out: The results of antibiotic drug inhibiting cancer cell lines (cell viability analysis), BCC
[18] = test system: C-33A (Cervical carcinoma); assay: Cell viability analysis, cervical cancer C-33A; format: cell-based, human; conditions: Homo sapiens, 72 h; C-33A; repeated experiment; read-out: The results of antibiotic drug inhibiting cancer cell lines (cell viability analysis), C-33A

**Q.** For `CC[C@@H]([C@H](C)O)n1ncn(-c2ccc(N3CCN(c4ccc(OC[C@@H]5CO[C@@](Cn6cncn6)(c6ccc(F)cc6F)C5)cc4)CC3)cc2)c1=O` [Posaconazole], which viability at 10 µM ([1]; A549, repeated experiment, read-out: The results of antibiotic drug inhibiting cancer cell lines (cell viability analysis), A549) is on record?
**A.** 18.1%

**Q.** And the viability at 10 µM ([1]; drug 10 μM, 72 hours, WST-1, OD450 nm, read-out: cell viability (survival rate), A549)?
**A.** 42.9%

**Q.** And the viability at 10 µM ([2]; repeated experiment, read-out: The results of antibiotic drug inhibiting cancer cell lines (cell viability analysis), HeLa)?
**A.** 49.4%

**Q.** And the viability at 10 µM ([2]; drug 10 μM, 72 hours, WST-1, OD450 nm, read-out: cell viability (survival rate), HeLa)?
**A.** 75.8%

**Q.** What about the viability at 10 µM ([3]; PC-3, repeated experiment, read-out: The results of antibiotic drug inhibiting cancer cell lines (cell viability analysis), PC-3) of the same compound?
**A.** 52.1%

**Q.** And the viability at 10 µM ([3]; drug 10 μM, 72 hours, WST-1, OD450 nm, read-out: cell viability (survival rate), PC3)?
**A.** 45.3%

**Q.** And the viability at 10 µM (AsPC-1)?
**A.** 32.2%

**Q.** What about the viability at 10 µM (BxPC-3) of the same compound?
**A.** 42.6%

**Q.** What about the viability at 10 µM ([4]; A375, repeated experiment, read-out: The results of antibiotic drug inhibiting cancer cell lines (cell viability analysis), A375) of the same compound?
**A.** 47.9%

**Q.** And the viability at 10 µM ([4]; drug 10 μM, 72 hours, WST-1, OD450 nm, read-out: cell viability (survival rate), A375)?
**A.** 49.8%

**Q.** What about the viability at 10 µM [5] of the same compound?
**A.** 60.4%

**Q.** What about the viability at 10 µM ([6]; read-out: The results of antibiotic drug inhibiting cancer cell lines (cell viability analysis), LoVo, repeated experiment) of the same compound?
**A.** 62%

**Q.** What about the viability at 10 µM ([6]; read-out: cell viability (survival rate), LoVo, drug 10 μM, 72 hours, WST-1, OD450 nm) of the same compound?
**A.** 73.7%

**Q.** What about the viability at 10 µM ([7]; AGS, repeated experiment, read-out: The results of antibiotic drug inhibiting cancer cell lines (cell viability analysis), AGS) of the same compound?
**A.** 65.7%

**Q.** What about the viability at 10 µM ([7]; drug 10 μM, 72 hours, WST-1, OD450 nm, read-out: cell viability (survival rate), AGS) of the same compound?
**A.** 42.7%

**Q.** What about the viability at 10 µM [8] of the same compound?
**A.** 71.3%

**Q.** What about the viability at 10 µM ([9]; HepG2, repeated experiment, read-out: The results of antibiotic drug inhibiting cancer cell lines (cell viability analysis), HepG2) of the same compound?
**A.** 57.8%

**Q.** And the viability at 10 µM ([9]; drug 10 μM, 72 hours, WST-1, OD450 nm, read-out: cell viability (survival rate), HepG2)?
**A.** 87.2%

**Q.** What about the viability at 10 µM (T24) of the same compound?
**A.** 55.4%

**Q.** And the viability at 10 µM ([10]; MKN-45, repeated experiment, read-out: The results of antibiotic drug inhibiting cancer cell lines (cell viability analysis), MKN-45)?
**A.** 92.8%

**Q.** What about the viability at 10 µM ([10]; drug 10 μM, 72 hours, WST-1, OD450 nm, read-out: cell viability (survival rate), MKN-45) of the same compound?
**A.** 52%

**Q.** And the viability at 10 µM [11]?
**A.** 26.6%

**Q.** And the viability at 10 µM (NIH: OVCAR-3)?
**A.** 62.3%

**Q.** And the viability at 10 µM (U-2OS)?
**A.** 38.9%

**Q.** What about the viability at 10 µM (TOV-21G) of the same compound?
**A.** 37.3%

**Q.** And the viability at 10 µM [12]?
**A.** 18.1%

**Q.** And the viability at 10 µM ([13]; H1650, repeated experiment, read-out: The results of antibiotic drug inhibiting cancer cell lines (cell viability analysis), H1650)?
**A.** 67.5%

**Q.** What about the viability at 10 µM ([13]; drug 10 μM, 72 hours, WST-1, OD450 nm, read-out: cell viability (survival rate), H1650) of the same compound?
**A.** 67%

**Q.** What about the viability [14] of the same compound?
**A.** 51.6%

**Q.** And the viability at 10 µM ([15]; MCF-7, repeated experiment, read-out: The results of antibiotic drug inhibiting cancer cell lines (cell viability analysis), MCF-7)?
**A.** 48%

**Q.** What about the viability at 10 µM ([15]; drug 10 μM, 72 hours, WST-1, OD450 nm, read-out: cell viability (survival rate), MCF7) of the same compound?
**A.** 63.6%

**Q.** And the viability at 10 µM [16]?
**A.** 95.2%

**Q.** What about the “inhibition effect on different cancer cell lines” value (cancer cell lines) of the same compound?
**A.** significant inhibition effect

**Q.** What about the viability at 10 µM [17] of the same compound?
**A.** 43.5%

**Q.** What about the viability at 10 µM [18] of the same compound?
**A.** 35.5%
